Data: patent US5023239A, “Sialosyl cholesterol, process for producing the same, and neuropathy remedy comprising the same” (MECT Corporation, priority 1986, dated 1991)

Tests used:
ddy male mice = experiment: Acute toxicity test, intravenous injection; assay type: in vivo, mouse; conditions: ddy male mice of 45 weeks age
Method: Acute toxicity test was conducted by intravenously injecting the compounds into ddy male mice of 45 weeks age.

[1] = system: Neuroblastoma Cell, Neuro 2a Strain; experiment: Effect on proliferation / neurite propagation of neuroblastoma cell, Neuro 2a strain; assay type: cell-based, mouse
Method: Experiments for confirming the activity of the present compound for promoting propagation of neurites will be explained below.
Effect On Proliferation of Neuroblastoma Cell, Neuro 2a Strain
Neuro 2a was floated on culture medium consisting of 90% of Dulbecco's Modified Eagle's Midium, and 10% of fetal calf serum (FCS), and containing 100 units/ml of penicillin G and 100 micro g/ml of streptomycin sulfate, and then cultivated at 37° C. in a carbon dioxide incubator containing air into which 5% of carbon dioxide was incorporated. The vessel as used was a polystyrene tray having a diameter of 60 mm. 1 to 2×10^4 of the neuroblastoma cells were implanted in each tray and cultivated for 48 hours. The FCS-containing culture was removed from the resultant cell culture. […] When 24 and 48 hours had passed after the addition of these medicines, the number of the living cells increased in the culture, the number of the neurites increased, and the length of the neurites were measured. The experiment was conducted on three trays with respect to each concentration. The resultant data were expressed by average value+standard error (S.E).

SMILES: CC(=O)NC1C(O)CC(OC2CCC3(C)C(=CCC4C3CCC3(C)C(C(C)CCCC(C)C)CCC43)C2)(C(=O)O)OC1C(O)C(O)CO [Compound (4), sodium 5-acetoamide-2-O-(5-cholesten-3-yl)-3,5-dideoxy-alpha-D-glycero-D-galacto-2-nonulopyranosonate]
- LD50 (ddy male mice): 93 mg/kg
- activity (in words) ([1]; 24 hours cultivation, 10 ng/ml): indicated activity
- Length of neurite ± S.E. ([1]; 24 hrs, 10 ng/ml): 92.4 ± 5.31 μm/cell
- Number of neurite propagated cells ([1]; 24 hrs, 10 ng/ml): 131
- Number of neurites ± S.E. ([1]; 24 hrs, 10 ng/ml): 1.2 ± 0.04 number/cell
- Rate of neurite propagation (%) ([1]; 24 hrs, 10 ng/ml): 31.5%
- Total number of cells ([1]; 24 hrs, 10 ng/ml): 416
- Length of neurite ± S.E. ([1]; 24 hrs, 100 ng/ml): 96.7 ± 4.12 μm/cell
- Number of neurite propagated cells ([1]; 24 hrs, 100 ng/ml): 177
- Number of neurites ± S.E. ([1]; 24 hrs, 100 ng/ml): 1.2 ± 0.03 number/cell
- Rate of neurite propagation (%) ([1]; 24 hrs, 100 ng/ml): 41.5%
- Total number of cells ([1]; 24 hrs, 100 ng/ml): 427
- Length of neurite ± S.E. ([1]; 24 hrs, 1 μg/ml): 130.4 ± 6.12 μm/cell
- Number of neurite propagated cells ([1]; 24 hrs, 1 μg/ml): 190
- Number of neurites ± S.E. ([1]; 24 hrs, 1 μg/ml): 1.2 ± 0.03 number/cell
- Rate of neurite propagation (%) ([1]; 24 hrs, 1 μg/ml): 50.9%
- Total number of cells ([1]; 24 hrs, 1 μg/ml): 373
- minimal effective concentration ([1]; 48 hours after addition): 10 ng/mL
- Length of neurite ± S.E. ([1]; 48 hrs, 10 ng/ml): 121.9 ± 5.18 μm/cell
- Number of neurite propagated cells ([1]; 48 hrs, 10 ng/ml): 219
- Number of neurites ± S.E. ([1]; 48 hrs, 10 ng/ml): 1.2 ± 0.03 number/cell
- Rate of neurite propagation (%) ([1]; 48 hrs, 10 ng/ml): 46.9%
- Total number of cells ([1]; 48 hrs, 10 ng/ml): 467
- Length of neurite ± S.E. ([1]; 48 hrs, 100 ng/ml): 126.0 ± 6.10 μm/cell
- Number of neurite propagated cells ([1]; 48 hrs, 100 ng/ml): 193
- Number of neurites ± S.E. ([1]; 48 hrs, 100 ng/ml): 1.2 ± 0.04 number/cell
- Rate of neurite propagation (%) ([1]; 48 hrs, 100 ng/ml): 47.8%
- Total number of cells ([1]; 48 hrs, 100 ng/ml): 404
- Length of neurite ± S.E. ([1]; 48 hrs, 1 μg/ml): 156.3 ± 8.32 μm/cell
- Number of neurite propagated cells ([1]; 48 hrs, 1 μg/ml): 182
- Number of neurites ± S.E. ([1]; 48 hrs, 1 μg/ml): 1.2 ± 0.04 number/cell
- Rate of neurite propagation (%) ([1]; 48 hrs, 1 μg/ml): 49.3%
- Total number of cells ([1]; 48 hrs, 1 μg/ml): 369
- growth / propagation of neurites (in words) ([1]; Neuro 2a culture): strong activity for the propagation of the neurites
- activity relative to GMl (times as high) ([1]; vs GMl, from minimal effective concentrations at 48 hours, molecular weights considered): 420 times
- activity relative to GQlb (times as high) ([1]; vs GQlb, from minimal effective concentrations at 48 hours, molecular weights considered): 270 times
